Target: T1, Tyrosine-protein kinase JAK3 (Homo sapiens, UniProt P52333)
T1 sequence (P52333 whole entry): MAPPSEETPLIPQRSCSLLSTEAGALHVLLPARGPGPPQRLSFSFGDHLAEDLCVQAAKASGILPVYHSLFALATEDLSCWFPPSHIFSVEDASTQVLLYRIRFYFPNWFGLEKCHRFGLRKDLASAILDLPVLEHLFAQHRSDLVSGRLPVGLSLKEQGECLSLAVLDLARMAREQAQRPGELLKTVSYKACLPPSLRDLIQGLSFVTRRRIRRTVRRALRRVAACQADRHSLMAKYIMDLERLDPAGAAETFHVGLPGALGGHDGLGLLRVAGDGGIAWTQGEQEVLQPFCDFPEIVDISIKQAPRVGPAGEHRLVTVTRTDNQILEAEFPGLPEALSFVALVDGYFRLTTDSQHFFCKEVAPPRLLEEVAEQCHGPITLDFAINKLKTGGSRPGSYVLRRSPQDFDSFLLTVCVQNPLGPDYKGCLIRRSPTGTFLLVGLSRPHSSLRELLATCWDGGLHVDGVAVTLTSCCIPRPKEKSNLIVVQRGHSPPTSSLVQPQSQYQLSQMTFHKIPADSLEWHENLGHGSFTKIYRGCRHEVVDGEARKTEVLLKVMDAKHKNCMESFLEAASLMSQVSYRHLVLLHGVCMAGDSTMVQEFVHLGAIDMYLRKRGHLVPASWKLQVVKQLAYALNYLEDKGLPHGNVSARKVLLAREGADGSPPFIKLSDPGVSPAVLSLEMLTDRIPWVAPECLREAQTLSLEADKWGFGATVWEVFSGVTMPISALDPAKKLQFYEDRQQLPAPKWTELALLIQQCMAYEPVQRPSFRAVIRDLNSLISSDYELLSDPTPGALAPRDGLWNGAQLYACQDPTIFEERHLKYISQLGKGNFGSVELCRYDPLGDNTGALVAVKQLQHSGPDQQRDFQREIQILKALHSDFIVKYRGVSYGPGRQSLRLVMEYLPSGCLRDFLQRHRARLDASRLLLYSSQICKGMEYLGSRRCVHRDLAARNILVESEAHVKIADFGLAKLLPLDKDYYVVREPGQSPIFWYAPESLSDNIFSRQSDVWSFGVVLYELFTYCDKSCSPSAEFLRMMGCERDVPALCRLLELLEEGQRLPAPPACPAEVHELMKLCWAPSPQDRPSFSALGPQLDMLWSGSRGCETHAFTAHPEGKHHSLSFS
Assay: Inhibition of JAK3

IC50 [nM] | Structure (SMILES)
98 | CN1CCN(c2ccc(Nc3ncc4[nH]nc(-c5ccccc5)c4n3)cc2)CC1
2640 | Cc1cc(C(=O)Nc2ccc3[nH]ncc3c2)nn1-c1cccc(C(F)(F)F)c1
957 | Oc1c2ccccc2c2c3c(cccc13)N=N2 [SP-600125]

Source: ChEMBL document CHEMBL1142524, “Virtual screening to successfully identify novel janus kinase 3 inhibitors: a sequential focused screening approach” (J Med Chem, 2008)
